Measured values reported in ChEMBL document CHEMBL4330126 (2019).
The source made the active and inactive calls. No cut-off for these calls is given here.

What was measured:
RAW264.7 [1] = assay: Inhibition of LPS-induced ROS generation in mouse RAW264.7 cells at 0.5 x 10^-3 to 10^-3 M after 24 hrs by DCFDA staining-based flow cytometric analysis; type: functional, cell-based
RAW264.7 [2] = assay: Inhibition of LPS-stimulated NFkappaB/MAPK signaling activation in mouse RAW264.7 cells assessed as decrease in JunB protein level at 0.5 x 10^-3 to 10^-3 M after 24 hrs by Western blot analysis; type: cell-based
RAW264.7 [3] = assay: Antiinflammatory activity in mouse RAW264.7 cells assessed as decrease in LPS-induced IL-1beta level at 10^-3 M by ELISA; type: functional; set-up: scale not given: the % may be the effect or the level left
RAW264.7 [4] = assay: Anti-inflammatory activity in mouse RAW264.7 cells assessed as inhibition of LPS-induced IL-8 mRNA expression at 10^-3 M after 24 hrs by qRT-PCR analysis; type: functional; conditions: RAW264.7, 24 h
RAW264.7 [5] = assay: Inhibition of LPS-stimulated NFkappaB/MAPK signaling activation in mouse RAW264.7 cells assessed as decrease in phosphorylated IKK protein level level after 24 hrs by Western blot analysis; type: cell-based
RAW264.7 [6] = assay: Inhibition of LPS-induced JNK-phosphorylation in mouse RAW264.7 cells at 0.5 x 10^-3 to 10^-3 M after 24 hrs by Western blot analysis; type: cell-based
RAW264.7 [7] = assay: Antiinflammatory activity in mouse RAW264.7 cells assessed as decrease in LPS-induced IL-8 level at 10^-3 M by ELISA; type: functional; set-up: scale not given: the % may be the effect or the level left
RAW264.7 [8] = assay: Anti-inflammatory activity in mouse RAW264.7 cells assessed as inhibition of LPS-induced iNOS level at 10^-3 M by Western blot analysis; type: functional, cell-based
RAW264.7 [9] = assay: Antiinflammatory activity against mouse RAW264.7 cells assessed as inhibition of LPS-induced nitric oxide production after 24 hrs by Griess assay; type: functional, cell-based
RAW264.7 [10] = assay: Inhibition of LPS-stimulated NFkappaB/MAPK signaling activation in mouse RAW264.7 cells assessed as decrease in phosphorylated c-Jun protein level at 0.5 x 10^-3 to 10^-3 M after 24 hrs by Western blot analysis; type: cell-based
RAW264.7 [11] = assay: Antiinflammatory activity in mouse RAW264.7 cells assessed as decrease in LPS-induced TNF-alpha level at 10^-3 M by ELISA; type: functional; set-up: scale not given: the % may be the effect or the level left
RAW264.7 [12] = assay: Anti-inflammatory activity in mouse RAW264.7 cells assessed as inhibition of LPS-induced iNOS mRNA expression at 10^-3 M by qRT-PCR analysis; type: functional, cell-based
RAW264.7 [13] = assay: Anti-inflammatory activity in mouse RAW264.7 cells assessed as inhibition of LPS-induced TNF-alpha mRNA expression at 10^-3 M after 24 hrs by qRT-PCR analysis; type: functional; conditions: RAW264.7, 24 h
RAW264.7 [14] = assay: Antiinflammatory activity in mouse RAW264.7 cells assessed as decrease in LPS-induced IL-6 level at 10^-3 M by ELISA; type: functional; set-up: scale not given: the % may be the effect or the level left
RAW264.7 [15] = assay: Inhibition of LPS-stimulated NFkappaB/MAPK signaling activation in mouse RAW264.7 cells assessed as increase in IkappaB protein level after 24 hrs by Western blot analysis; type: cell-based
[16] = molecular target: Mitogen-activated protein kinase 1 and 3 (ERK2 and ERK1) (Mus musculus) (UniProt P63085+Q63844); assay: Inhibition of LPS-induced ERK-1/2 phosphorylation in mouse RAW264.7 cells at 0.5 x 10^-3 to 10^-3 M after 24 hrs by Western blot analysis; type: cell-based
[17] = molecular target: MAP kinase p38 (Mus musculus) (UniProt P47811+O08911+Q9WUI1+Q9Z1B7); assay: Inhibition of LPS-induced p38 phosphorylation in mouse RAW264.7 cells at 0.5 x 10^-3 to 10^-3 M after 24 hrs by Western blot analysis; type: cell-based
RAW264.7 [18] = assay: Anti-inflammatory activity in mouse RAW264.7 cells assessed as inhibition of LPS-induced IL-6 mRNA expression at 10^-3 M after 24 hrs by qRT-PCR analysis; type: functional; conditions: RAW264.7, 24 h
RAW264.7 [19] = assay: Anti-inflammatory activity in mouse RAW264.7 cells assessed as inhibition of LPS-induced IL-1beta mRNA expression at 10^-3 M after 24 hrs by qRT-PCR analysis; type: functional; conditions: RAW264.7, 24 h
RAW264.7 [20] = assay: Inhibition of LPS-induced morphological changes in mouse RAW264.7 cells at 0.5 x 10^-3 to 10^-3 M after 24 hrs by […] fluorescence microscopy; type: functional, cell-based
RAW264.7 [21] = assay: Inhibition of LPS-induced ROS generation in mouse RAW264.7 cells at 0.5 x 10^-3 to 10^-3 M after 24 hrs by DCFDA staining-based fluorescence microscopy; type: functional, cell-based

Mitogen-activated protein kinase 1 and 3 (ERK2 and ERK1) (Mus musculus), sequence (P63085 whole entry, looked up): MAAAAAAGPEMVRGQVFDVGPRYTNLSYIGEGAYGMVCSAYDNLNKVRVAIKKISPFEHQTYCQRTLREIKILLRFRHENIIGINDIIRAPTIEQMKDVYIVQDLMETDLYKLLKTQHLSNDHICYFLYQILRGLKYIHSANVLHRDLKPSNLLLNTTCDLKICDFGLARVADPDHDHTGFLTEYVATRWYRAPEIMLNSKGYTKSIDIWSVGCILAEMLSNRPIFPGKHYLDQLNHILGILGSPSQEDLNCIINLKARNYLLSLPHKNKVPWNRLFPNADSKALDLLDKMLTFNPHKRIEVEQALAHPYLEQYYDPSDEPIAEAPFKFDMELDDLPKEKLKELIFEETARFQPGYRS
Mitogen-activated protein kinase 1 and 3 (ERK2 and ERK1) (Mus musculus), sequence (Q63844 whole entry, looked up): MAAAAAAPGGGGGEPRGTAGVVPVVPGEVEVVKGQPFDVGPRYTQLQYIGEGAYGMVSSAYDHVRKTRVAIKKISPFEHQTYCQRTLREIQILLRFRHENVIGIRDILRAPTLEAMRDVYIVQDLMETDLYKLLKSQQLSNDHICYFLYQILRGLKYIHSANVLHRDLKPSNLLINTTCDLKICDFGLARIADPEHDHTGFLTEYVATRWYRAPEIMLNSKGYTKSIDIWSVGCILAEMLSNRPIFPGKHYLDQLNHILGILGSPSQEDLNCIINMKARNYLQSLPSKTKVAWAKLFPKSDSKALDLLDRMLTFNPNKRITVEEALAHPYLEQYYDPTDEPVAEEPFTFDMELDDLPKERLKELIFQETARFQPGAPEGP

CC1(C)[C@@H](O[C@H]2O[C@H](C(=O)[O-])[C@@H](O)[C@H](O)[C@H]2O[C@@H]2O[C@H](C(=O)[O-])[C@@H](O)[C@H](O)[C@H]2O)CC[C@]2(C)[C@H]3C(=O)C=C4[C@@H]5C[C@@](C)(C(=O)O)CC[C@]5(C)CC[C@@]4(C)[C@]3(C)CC[C@@H]12.O.O.O.O.[Mg+2]
inhibition (RAW264.7 [1]): Active
inhibition (RAW264.7 [2]): Active
Activity (RAW264.7 [3]): 33.6%
inhibition at 1000 µM (RAW264.7 [4]): 88.4%
inhibition (RAW264.7 [5]): Dose-dependent effect
inhibition (RAW264.7 [6]): Active
Activity (RAW264.7 [7]): 49.3%
inhibition (RAW264.7 [8]): Active
inhibition (RAW264.7 [9]): Dose-dependent effect
inhibition (RAW264.7 [10]): Active
Activity (RAW264.7 [11]): 17.3%
inhibition (RAW264.7 [12]): Active
inhibition at 1000 µM (RAW264.7 [13]): 48.6%
Activity (RAW264.7 [14]): 28.7%
inhibition (RAW264.7 [15]): Dose-dependent effect
inhibition [16]: Active
inhibition [17]: Active
inhibition at 1000 µM (RAW264.7 [18]): 46.2%
inhibition at 1000 µM (RAW264.7 [19]): 61.7%
inhibition (RAW264.7 [20]): Active
inhibition (RAW264.7 [21]): Active
